Measured values from patent US11013740B2, “Histone deacetylase 6 selective inhibitors for the treatment of cisplatin-induced peripheral neuropathy” (REGENACY PHARMACEUTICALS, LLC, priority 2015, dated 2021).

What was measured:
[1] = tested on: cisplatin-induced mechanical hyperalgesia; experiment: Von Frey test for mechanical hyperalgesia in cisplatin-treated mice; assay type: in vivo; settings: for effect on existing cisplatin-induced mechanical hyperalgesia: 7 daily doses starting 3 days after last cisplatin dose
Procedure: Adult male C57/Bl6J mice received cisplatin intraperitoneally (i.p.) (2.3 mg/kg) daily for five days, followed by five days rest and a second round of five days of cisplatin treatment. Three days after the last dose of cisplatin, mice received the HDAC6 inhibitor, compound 001, a compound of Formula (I), i.p. for seven to fourteen days at 3 mg/kg or 10 mg/kg.
To quantify signs of cisplatin-induced pain, the von Frey test was used (see below) which measures the decrease in threshold to induce a withdrawal response to a mechanical stimulus (hyperalgesia, one of the characteristics of CIPN). To assess cisplatin-induced numbness, the adhesive removal test (ART) was used. The time it took for the mouse to have a behavioral response to the patch (i.e. shaking or attempted removal) was recorded as a measure of sensory deficit or numbness. To determine if behavioral changes were due to altered general activity or motor function, the locomotor activity (LMA) test and the rotarod test was used. For LMA mice were placed in an open-field testing cage and movement was measured for 5 minutes. For the rotarod, mice were trained for two days and then tested on the rotarod (with increasing speeds) for 5 minutes. Time on the rotarod was recorded.
Allodynic response to tactile stimulation is assessed using the Von Frey apparatus (Touch Test®).
The animal is placed in an enclosure and positioned on a metal mesh surface, but allowed to move freely. The animals' cabins are covered with red cellophane to diminish environmental disturbances. The test begins after a cessation of exploratory behavior. The set of Von Frey monofilaments provide an approximate logarithmic scale of actual force and a linear scale of perceived intensity.
The operating principle: when the tip of a fiber of given length and diameter is pressed against the skin at right angles, the force of application increases as long as the researcher continues to advance the probe until the fiber bends. After the fiber bends, the probe continues to advance, causing the fiber to bend more, but without additional force being applied.
The Touch Test™ Sensory Evaluator can be used on the plantar surfaces of the rat's foot. The animal indicates sensation by pulling back its paw. The minimal force needed to elevate the withdrawal reflex is considered/designated as the value of reference. In order to achieve paw withdrawal, the pressure applied is sometimes greater than 60 g, often requiring the researcher to apply enough pressure with the Von Frey filament to actually lift the paw of the naive animal. Decreases in force needed to induce withdrawal are indicative of hyperalgesia, as the force applied is a non-painful stimulus under normal conditions.
Cisplatin (TEVA Pharmaceuticals, North Wales, Pa.) was diluted in sterile saline and administered intraperitoneally (i.p.) at a dose of 2.3 mg/kg daily for 5 days, followed by 5 days of rest, and a second round of 5 doses for a total cumulative dose of 23 mg/kg cisplatin. It was shown that this dosing schedule induces mechanical hyperalgesia in mice (Qi-Liang Mao-Ying A K, et al. The anti-diabetic drug metformin protects against chemotherapy-induced peripheral neuropathy in a mouse model. Clinical Cancer Research. 2014; Krukowski K, et al. Prevention of chemotherapy-induced peripheral neuropathy by the small-molecule inhibitor pifithrin-mu. Pain. 2015; 156(11):2184-92). HDAC6 inhibitor, compound 001, (Acetylon Pharmaceuticals, Boston, Mass.) was dissolved in 20% 2-hydroxypropyl-β-cyclodextrin+0.5% hydroxypropyl methylcellulose (Sigma-Aldrich, St. Louis, Mo.) in water and administered i.p. at a dose of 10 mg/kg or 3 mg/kg. […]

acetylated α-tubulin = experiment: Western blot of acetylated α-tubulin in tibial nerves; assay type: in vivo; settings: saline+compound and cisplatin+compound treated mice, 11 doses
Procedure: Tibial nerves retrieved from the XF24 assay plate were used for western blot analysis of levels of acetylated α-tubulin and mitochondrial proteins cytochrome c oxidase subunit IV (Cox IV), succinate dehydrogenase complex subunit A (SDHA) and voltage-dependent anion channel (VDAC). Tissues were homogenized in RIPA buffer (50 mM Tris-HCl, pH 7.5, 500 mM NaCl, 2.5 mM MgCl2, 1% NP-40, 10% glycerol) containing proteinase inhibitors by sonication and 10 μg of protein was separated by SDS/PAGE and transferred to PVDF membrane for immunoblot analyses. The membranes were blocked with 5% non-fat dry milk in PBST (phosphate-buffered saline containing 0.1% Tween 20) and probed with primary antibodies recognizing acetylated lysine (Rabbit monoclonal; Abcam, Cambridge, United Kingdom), α-tubulin (Rabbit polyclonal; Cell Signaling Technology, Danvers, Mass.), Cox IV (Mouse monoclonal; Life Technologies, Carlsbad, Calif.), SDHA (Rabbit polyclonal; Cell Signaling Technology, Danvers, Mass.) and VDAC (Rabbit polyclonal; Cell Signaling Technology, Danvers, Mass.) followed by HRP-conjugated anti-mouse, anti-rabbit, or anti-β-actin antibodies (Jackson Laboratory, Bar Harbor, Me.). […] The images were acquired using ImageQuant LAS 4000 (GE Healthcare Life Sciences, Little Chalfont, United Kingdom) and densitometrically analyzed using Image J software.

## O=C(NO)c1cnc(NC2(c3ccccc3)CCC(F)(F)CC2)nc1 [compound 001]
[1]; 3 mg/kg i.p.
  effect on existing cisplatin-induced mechanical hyperalgesia: did not
[1]; 10 mg/kg for two consecutive weeks starting 3 days after last cisplatin dose
  effect of prolonged treatment on mechanical hyperalgesia: complete and sustained recovery from mechanical hyperalgesia
[1]; 10 mg/kg for two consecutive weeks, followed to experiment termination
  duration of beneficial effect of prolonged regimen: maintained until at least one month after the last dose
[1]; 10 mg/kg i.p.
  effect on existing cisplatin-induced mechanical hyperalgesia: effectively relieved cisplatin-induced mechanical hyperalgesia
[1]; 10 mg/kg i.p., cisplatin-treated mice
  time after first dose at which effect on mechanical allodynia was first detected: 24 h
[1]; 10 mg/kg, without cisplatin
  mechanical sensitivity, compound alone: did not alter mechanical sensitivity
[1]; 7 daily doses of 10 mg/kg
  time after last dose until which beneficial effect on mechanical hyperalgesia was maintained: 4 days
[1]; administered i.p. one hour prior to each dose of cisplatin
  prevention of development of mechanical hyperalgesia: prevented the development of mechanical hyperalgesia
[1]; second round of 7 daily injections, 10 mg/kg, after 7 days rest
  effect of second round of treatment on mechanical hyperalgesia: transiently reversed cisplatin-induced mechanical hyperalgesia
Acetylated α-tubulin
  α-tubulin acetylation in tibial nerves: increased α-tubulin acetylation
